Test results as given in patent publication US20050014942A1, “Amide derivatives and drugs” (priority 2001, published 2005).
Structures can show the parent of a compound that is named as a salt.

Tested on: collagen production induced by TGF-β (NHDF cells)
Assay: Inhibitory effect on collagen production induced by TGF-β, [3H] proline uptake (NHDF cells)
Type: cell-based, human
Conditions: TGF-β1 3 ng/ml; for inhibition at 1 µM / inhibition at 3 µM / inhibition at 10 µM: Homo sapiens, NHDF
Protocol: As an index of collagen production, the uptake of [^3H] proline was measured.
Using a 96-well microplate, normal human skin derived fibroblast (NHDF, 10^4/well) or human embryonic lung fibroblast (TIG-3, 10^4/well) were cultured in a 10% fetal calf serum (FCS)-containing Dulbecco's modified Eagle medium (DMEM) for one day. After removing the culture supernatant, the cells were washed once with a 0.1% bovine serum albumin (BSA)-containing DMEM medium and then cultured in the 0.1% bovine serum albumin (BSA)-containing DMEM medium for one day. After adding each of the test compounds in each concentration (1, 3, 10 μM), the cells were cultured and, after adding TGF-β1 (3 ng/ml) and [^3H] proline (18.5 kBq/well), the cells were further cultured for additional one day.
After removing the culture supernatant, the cells were washed twice with a phosphate buffer solution (PBS) and dissolved with 0.3M NaOH and 1% sodium dodecylsulfate (SDS), and then each protein fraction was precipitated with trichloroacetic acid (TCA) After the precipitate was filtered through a glass filter (GF/B) and washed, the quantity of [^3H] proline on the glass filter was measured by a liquid scintillation counter. The number of cells was measured by a cell growth measuring kit (XTT, Roche) and the uptake of [^3H] proline was corrected by the number of cells. Inhibitory ratio was calculated as compared with the case where a difference between the uptake of [^3H] proline with or without TGF-β1.

Row | SMILES | inhibition at 1 µM (1 μM) [%] | inhibition at 3 µM (3 μM) [%] | inhibition at 10 µM (10 μM) [%] | further results
1 | Cn1c(-c2ccccc2)c(/C=C/C(=O)NCC2CN(Cc3ccc(F)cc3)CCO2)c2ccccc21 (stereo not shown) [Example 30, (2E)-N-{[4-(4-fluorobenzyl)morpholin-2-yl]methyl}-3-(1-methyl-2-phenyl-1H-indol-3-yl)acrylamide hydrochloride] | 41 | 94 | 148 | 
2 | Cn1c(-c2ccccc2)c(/C=C/C(=O)N[C@@H]2c3ccccc3C[C@@H]2O)c2cc3c(cc21)OCO3 [Example 97, (2E)-N-[(1R, 2S)-2-hydroxy-2,3-dihydro-1H-inden-1-yl]-3-(1-methyl-2-phenyl-5,6-methylenedioxy-1H-indol-3-yl)acrylamide] | 37 | 69 |  | 
3 | COc1ccc(N2CCN(C(=O)/C=C/c3c(-c4ccccc4)n(C)c4ncccc34)CC2)cc1 [Example 98, 1-[(2E)-3-(1-methyl-2-phenyl-1H-pyrrolo[2,3-b]pyridin-3-yl)prop-2-enoyl]-4-(4-methoxyphenyl)piperazine] | 47 | 92 |  | 
4 | COc1cc2c(cc1OC)CN(C(=O)/C=C/c1c(-c3ccccc3)n(C)c3ncccc13)CC2 [Example 109, 2-[(2E)-3-(1-methyl-2-phenyl-1H-pyrrolo[2,3-b]pyridin-3-yl)prop-2-enoyl]-6,7-dimethoxy-1,2,3,4-tetrahydroisoquinoline hydrochloride] | 50 | 76 | 135 | 
5 | CN(CCC(O)c1ccccc1)C(=O)/C=C/c1c(-c2ccc(F)cc2)n(C)c2ccccc12 (stereo not shown) [Example 110, (2E)-N-methyl-N-(3-hydroxy-3-phenylpropyl)-3-[1-methyl-2-(4-fluorophenyl)-1H-indol-3-yl]acrylamide] |  | 66 | 143 | 
6 | COc1cccc2c(/C=C/C(=O)N(C)CCC(O)c3ccccc3)c(-c3ccccc3)n(C)c12 (stereo not shown) [Example 111, (2E)-N-methyl-N-(3-hydroxy-3-phenylpropyl)-3-(1-methyl-2-phenyl-7-methoxy-1H-indol-3-yl)acrylamide] |  | 82 | 168 | 
7 | CN(CCC(O)c1ccccc1)C(=O)/C=C/c1c(-c2ccc3c(c2)OCO3)n(C)c2ccccc12 (stereo not shown) [Example 112, (2E)-N-methyl-N-(3-hydroxy-3-phenylpropyl)-3-[1-methyl-2-(3,4-methylenedioxyphenyl)-1H-indol-3-yl]acrylamide] |  | 73 | 143 | 
8 | Cn1c(-c2ccc3c(c2)OCO3)c(/C=C/C(=O)N[C@@H]2c3ccccc3C[C@@H]2O)c2ccccc21 [Example 113, (2E)-N-[(1R,2S)-2-hydroxy-2,3-dihydro-1H-inden-1-yl]-3-[1-methyl-2-(3,4-methylenedioxyphenyl)-1H-indol-3-yl]acrylamide] |  | 88 | 148 | 
9 | CC1c2cc(O)c(O)cc2CCN1C(=O)/C=C/c1c(-c2ccc3c(c2)OCO3)n(C)c2ccccc12 (stereo not shown) [Example 114, 2-{(2E)-3-[1-methyl-2-(3,4-methylenedioxyphenyl)-1H-indol-3-yl]prop-2-enoyl}-1-methyl-6,7-dihydroxy-1,2,3,4-tetrahydroisoquinoline] |  | 94 | 165 | 
10 | COc1ccc(CCN(C)C(=O)/C=C/c2c(-c3ccc4c(c3)OCO4)n(C)c3ccccc23)cc1OC [Example 115, (2E)-N-methyl-N-[2-(3,4-dimethoxyphenyl)ethyl]-3-[1-methyl-2-(3,4-methylenedioxyphenyl)-1H-indol-3-yl]acrylamide] |  | 84 | 155 | 
11 | Cn1c(-c2ccc3c(c2)OCO3)c(/C=C/C(=O)N(CCCCO)Cc2ccccc2)c2ccccc21 [Example 116, (2E)-N-(4-hydroxybutyl)-N-benzyl-3-[1-methyl-2-(3,4-methylenedioxyphenyl)-1H-indol-3-yl]acrylamide] |  | 76 | 168 | 
12 | CC1c2cc(O)c(O)cc2CCN1C(=O)/C=C/c1c(-c2ccccc2)n(C)c2cc3c(cc12)OCO3 (stereo not shown) [Example 117, 2-{(2E)-3-[1-methyl-2-phenyl-(5,6-methylenedioxy)-1H-indol-3-yl]prop-2-enoyl}-1-methyl-6,7-dihydroxy-1,2,3,4-tetrahydroisoquinoline] |  |  |  | Inhibitory effect on collagen production induced by TGF-β (% inhibition) (3 μM): 82%; Inhibitory effect on collagen production induced by TGF-β (% inhibition) (10 μM): 140%
13 | COc1cccc(-c2c(/C=C/C(=O)N(C)CCC(O)c3ccccc3)c3ccccc3n2C)c1 (stereo not shown) [Example 118, (2E)-N-methyl-N-(3-hydroxy-3-phenylpropyl)-3-[1-methyl-2-(3-methoxyphenyl)-1H-indol-3-yl]acrylamide] |  | 81 | 147 | 
14 | COc1ccc(-c2c(/C=C/C(=O)N(C)CCC(O)c3ccccc3)c3ccccc3n2C)cc1 (stereo not shown) [Example 119, (2E)-N-methyl-N-(3-hydroxy-3-phenylpropyl)-3-[1-methyl-2-(4-methoxyphenyl)-1H-indol-3-yl]acrylamide] |  | 75 | 153 | 
15 | CN1CCC(N(C)C(=O)/C=C/c2c(-c3ccccc3)n(C)c3ncccc23)CC1 [Example 122, (2E)-N-methyl-N-(1-methyl-piperidin-4-yl)-3-(1-methyl-2-phenyl-1H-pyrrolo[2,3-b]pyridin-3-yl)acrylamide] | 20 | 57 |  | 
16 | COc1cc2c(cc1OC)CN(C(=O)/C=C/c1c(-c3ccccc3)n(C)c3ncc(C)cc13)CC2 [Example 123, 2-[(2E)-3-(1,5-dimethyl-2-phenyl-1H-pyrrolo[2,3-b]pyridin-3-yl)prop-2-enoyl]-6,7-dimethoxy-1,2,3,4-tetrahydroisoquinoline hydrochloride] | 55 | 125 |  | 
17 | COc1cc2c(cc1OC)C(CC(=O)O)N(C(=O)/C=C/c1c(-c3ccccc3)n(C)c3ncccc13)CC2 (stereo not shown) [Example 124, {6,7-dimethoxy-2-[(2E)-3-(1-methyl-2-phenyl-1H-pyrrolo[2,3-b]pyridin-3-yl)prop-2-enoyl]-1,2,3,4-tetrahydroisoquinolin-1-yl}acetic acid] |  | 108 |  | Inhibitory effect on collagen production induced by TGF-β (% inhibition) (1 μM): 21%
18 | CC(=O)OCCN(Cc1ccccc1)C(=O)c1cnc(N2CCN(C(=O)c3c(-c4ccccc4)n(C)c4ccc(C)cc34)CC2)cn1 [Example 125, N-benzyl-N-[(5-{4-[(1,5-dimethyl-2-phenyl-1H-indol-3-yl)carbonyl]piperazin-1-yl}pyrazin-2-yl)carbonyl]aminoethyl acetate] | 52 | 91 |  | 
19 | CCOC(=O)C1CCCC1NC(=O)/C=C/c1c(-c2ccccc2)n(C)c2ncccc12 (stereo not shown) [Example 126, Ethyl 2-{N-[(2E)-3-(1-methyl-2-phenyl-1H-pyrrolo[2,3-b]pyridin-3-yl)prop-2-enoyl]amino}-1-cyclopentanecarboxylate] | 29 | 86 |  | 
20 | CCOC(=O)C1CCCCC1NC(=O)c1cnc(N2CCN(C(=O)c3c(-c4ccccc4)n(C)c4ccc(C)cc34)CC2)cn1 (stereo not shown) [Example 127, Ethyl 2-{N-[(5-{4-[(1,5-dimethyl-2-phenyl-1H-indol-3-yl)carbonyl]piperazin-1-yl}pyrazin-2-yl)carbonyl]amino}-1-cyclohexanecarboxylate] | 72 | 78 |  | 
21 | COc1cc2c(cc1OC)CN(C(=O)/C=C/c1c(-c3ccccc3)n(C)c3nccnc13)CC2 [Example 128, 2-[(2E)-3-(5-methyl-6-phenyl-5H-pyrrolo[2,3-b]pyrazin-7-yl)prop-2-enoyl]-6,7-dimethoxy-1,2,3,4-tetrahydroisoquinoline hydrochloride] | 61 | 76 |  | 
22 | CCOC(=O)C1CCCC1NC(=O)c1cnc(N2CCN(C(=O)c3c(-c4ccccc4)n(C)c4ccc(C)cc34)CC2)cn1 (stereo not shown) [Example 129, Ethyl 2-{N-[(5-{4-[(1,5-dimethyl-2-phenyl-1H-indol-3-yl)carbonyl]piperazin-1-yl}pyrazin-2-yl)carbonyl]amino}-1-cyclopentanecarboxylate] | 75 | 73 |  | 
23 | COc1cc2c(cc1OC)CN(C(=O)/C=C/c1c(-c3ccccc3)n(C)c3cnccc13)CC2 [Example 130, 2-[(2E)-3-(1-methyl-2-phenyl-1H-pyrrolo[2,3-c]pyridin-3-yl)prop-2-enoyl]-6,7-dimethoxy-1,2,3,4-tetrahydroisoquinoline hydrochloride] | 92 | 157 |  | 
24 | COc1ccc(-c2c(/C=C/C(=O)N3CCc4cc(OC)c(OC)cc4C3)c3cccnc3n2C)cc1OC [Example 131, 2-{(2E)-3-[1-methyl-2-(3,4-dimethoxyphenyl)-1H-pyrrolo[2,3-b]pyridin-3-yl]prop-2-enoyl}-6,7-dimethoxy-1,2,3,4-tetrahydroisoquinoline hydrochloride] | 96 | 141 |  | 
25 | Cc1ccc2c(c1)c(C(=O)N1CCN(c3cnc(C(=O)N(C)[C@@H](Cc4ccccc4)C(=O)O)cn3)CC1)c(-c1ccccc1)n2C [Example 132, N-methyl-N-[(5-{4-[(1,5-dimethyl-2-phenyl-1H-indol-3-yl)carbonyl]piperazin-1-yl}pyrazin-2-yl)carbonyl]-(S)-phenylalanine] | 67 | 122 |  | 
